Laboratory results published in PubChem BioAssay (NCI).
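In this assay, cells in 96-well plates receive the compound at five concentrations for 48 hours. Endpoints are linearly interpolated between the surrounding concentrations. At the TGI there is no net growth.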

Assays:
Test in all cases: NCI-60 cell line screen, 48 h
[1] = test system: NCI-H23 lung
[2] = test system: HT29 colon
[3] = test system: OVCAR-4 ovarian
[4] = test system: SK-MEL-5 melanoma
[5] = test system: KM12 colon
[6] = test system: A498 renal
[7] = test system: M14 melanoma
[8] = test system: 786-0 renal
[9] = test system: DU-145 prostate
[10] = test system: MCF7 breast
[11] = test system: UACC-257 melanoma
[12] = test system: SNB-19 CNS
[13] = test system: NCI-H226 lung
[14] = test system: ACHN renal
[15] = test system: A549 NSCLC
[16] = test system: LOX IMVI melanoma
[17] = test system: HOP-92 NSCLC
[18] = test system: EKVX NSCLC
[19] = test system: MDA-MB-435
[20] = test system: SK-OV-3 ovarian
[21] = test system: OVCAR-5 ovarian
[22] = test system: RPMI-8226 leukemia
[23] = test system: HS 578T breast
[24] = test system: PC-3 prostate
[25] = test system: SF-539 CNS
[26] = test system: BT-549 breast
[27] = test system: UO-31 renal
[28] = test system: SF-268 CNS
[29] = test system: K-562 leukemia
[30] = test system: SN12C renal
[31] = test system: RXF 393 renal
[32] = test system: NCI-H460 lung
[33] = test system: UACC-62 melanoma
[34] = test system: SR leukemia
[35] = test system: HOP-62 NSCLC
[36] = test system: MDA-MB-231 breast
[37] = test system: SK-MEL-28 melanoma
[38] = test system: SF-295 CNS
[39] = test system: IGROV1 ovarian
[40] = test system: CAKI-1 renal
[41] = test system: T-47D breast
[42] = test system: HCC-2998 colon
[43] = test system: HCT-116 colon
[44] = test system: MOLT-4 leukemia
[45] = test system: NCI/ADR-RES ovarian
[46] = test system: TK-10 renal
[47] = test system: HCT-15 colon
[48] = test system: SK-MEL-2 melanoma
[49] = test system: U251 CNS
[50] = test system: CCRF-CEM leukemia
[51] = test system: MDA-N
[52] = test system: COLO 205 colon
[53] = test system: OVCAR-3 ovarian
[54] = test system: HL-60(TB) leukemia
[55] = test system: OVCAR-8 ovarian
[56] = test system: SNB-75 CNS
[57] = test system: SW-620 colon
[58] = test system: MALME-3M melanoma
[59] = test system: NCI-H522 lung

`CCOC(=O)c1c(C)n([O-])c2cc(Cl)c(Cl)cc2[n+]1=O` was tested. Which TGI [1] did it give?
Its TGI is 26.6 µM.

What about the TGI [2] of the same compound?
The TGI was over 100 µM.

And the TGI [3]?
The TGI was 33.9 µM.

And the TGI [4]?
The TGI was 36.5 µM.

And the TGI [5]?
The TGI was 27.5 µM.

And the TGI [6]?
The TGI was 58 µM.

And the TGI [7]?
Its TGI is 43.9 µM.

And the TGI [8]?
Its TGI is 84.5 µM.

And the TGI [9]?
The TGI was 30.8 µM.

What about the TGI [10] of the same compound?
The TGI was over 100 µM.

What about the TGI [11] of the same compound?
Its TGI is 44.5 µM.

What about the TGI [12] of the same compound?
The TGI was over 100 µM.

What about the TGI [13] of the same compound?
The TGI was 33.5 µM.

And the TGI [14]?
Its TGI is over 100 µM.

What about the TGI [15] of the same compound?
The TGI was 35.6 µM.

What about the TGI [16] of the same compound?
Its TGI is 38.4 µM.

What about the TGI [17] of the same compound?
Its TGI is 33.2 µM.

And the TGI [18]?
The TGI was 74.4 µM.

And the TGI [19]?
The TGI was 55.1 µM.

What about the TGI [20] of the same compound?
The TGI was 85.9 µM.

And the TGI [21]?
Its TGI is over 100 µM.

And the TGI [22]?
The TGI was 34.9 µM.

What about the TGI [23] of the same compound?
Its TGI is 58.3 µM.

And the TGI [24]?
Its TGI is over 100 µM.

And the TGI [25]?
The TGI was over 100 µM.

And the TGI [26]?
The TGI was 75.9 µM.

And the TGI [27]?
The TGI was 67.1 µM.

What about the TGI [28] of the same compound?
The TGI was 76 µM.

And the TGI [29]?
Its TGI is over 100 µM.

What about the TGI [30] of the same compound?
Its TGI is 51.9 µM.

What about the TGI [31] of the same compound?
The TGI was 50.3 µM.

And the TGI [32]?
The TGI was 40.7 µM.

And the TGI [33]?
Its TGI is 32.5 µM.

And the TGI [34]?
Its TGI is 25.8 µM.

What about the TGI [35] of the same compound?
The TGI was 57.8 µM.

What about the TGI [36] of the same compound?
Its TGI is 51.3 µM.

What about the TGI [37] of the same compound?
Its TGI is over 100 µM.

And the TGI [38]?
Its TGI is over 100 µM.

And the TGI [39]?
The TGI was 24.1 µM.

And the TGI [40]?
Its TGI is 53 µM.

What about the TGI [41] of the same compound?
Its TGI is 60.1 µM.

And the TGI [42]?
Its TGI is 29.1 µM.

What about the TGI [43] of the same compound?
The TGI was 46.3 µM.

What about the TGI [44] of the same compound?
Its TGI is 42.8 µM.

And the TGI [45]?
Its TGI is 66.6 µM.

What about the TGI [46] of the same compound?
Its TGI is 54.8 µM.

What about the TGI [47] of the same compound?
Its TGI is 37.2 µM.

And the TGI [48]?
Its TGI is 52 µM.

What about the TGI [49] of the same compound?
Its TGI is over 100 µM.

And the TGI [50]?
The TGI was 45.9 µM.

What about the TGI [51] of the same compound?
Its TGI is over 100 µM.

And the TGI [52]?
The TGI was 39 µM.

What about the TGI [53] of the same compound?
Its TGI is 37.1 µM.

And the TGI [54]?
The TGI was 24.6 µM.

And the TGI [55]?
The TGI was 53 µM.

What does the source list for `O=C1C=CC(=O)c2c(O)c(Br)c(Br)c(O)c21`?
TGI [1]: 13.3 µM; TGI [2]: 9.89 µM; TGI [3]: 9.08 µM; TGI [4]: 27.2 µM; TGI [5]: 16.7 µM; TGI [6]: 36.9 µM; TGI [7]: 3.79 µM; TGI [8]: 3.32 µM; TGI [9]: 25.9 µM; TGI [10]: 5.48 µM; TGI [11]: 8.25 µM; TGI [12]: 33.1 µM; TGI [13]: 55.6 µM; TGI [14]: 5.99 µM; TGI [15]: 41.5 µM; TGI [17]: 4.18 µM; TGI [18]: 58.7 µM; TGI [19]: 8.19 µM; TGI [20]: 35.5 µM; TGI [21]: 30.8 µM; TGI [22]: 3.42 µM; TGI [23]: 69.1 µM; TGI [24]: 29.6 µM; TGI [25]: 30.5 µM; TGI [26]: 27.1 µM; TGI [27]: 6.65 µM; TGI [28]: 38.3 µM; TGI [29]: 1.75 µM; TGI [30]: 18.4 µM; TGI [31]: 6.13 µM; TGI [32]: 34.1 µM; TGI [33]: 26.1 µM; TGI [34]: 0.289 µM; TGI [35]: 24.8 µM; TGI [36]: 7.43 µM; TGI [56]: 38.4 µM; TGI [37]: 4.91 µM; TGI [38]: 36.9 µM; TGI [39]: 29.7 µM; TGI [41]: 6.04 µM; TGI [57]: 3.44 µM; TGI [42]: 35.2 µM; TGI [43]: 8.57 µM; TGI [44]: 0.549 µM; TGI [45]: 58.7 µM; TGI [58]: 2.54 µM; TGI [46]: 6.12 µM; TGI [47]: 4.83 µM; TGI [48]: 46.6 µM; TGI [49]: 33.7 µM; TGI [50]: 3.92 µM; TGI [51]: 5.67 µM; TGI [52]: 2.46 µM; TGI [53]: 15.8 µM; TGI [54]: 2.21 µM; TGI [55]: 25.7 µM

For `Cc1ccc(OCC2OC(n3cnc4c(Cl)nc(Cl)nc43)CC2Oc2ccc(C)cc2)cc1` (stereo unspecified), which TGI [1] is on record?
Its TGI is 3.91 µM.

What about the TGI [2] of the same compound?
Its TGI is 2.91 µM.

And the TGI [3]?
Its TGI is 4.45 µM.

And the TGI [4]?
The TGI was 19.2 µM.

And the TGI [5]?
Its TGI is 3.09 µM.

What about the TGI [6] of the same compound?
The TGI was 44.8 µM.

What about the TGI [7] of the same compound?
The TGI was 3.99 µM.

And the TGI [8]?
The TGI was 32.4 µM.

What about the TGI [9] of the same compound?
The TGI was 3.84 µM.

And the TGI [10]?
Its TGI is 4.01 µM.

And the TGI [11]?
The TGI was 6.59 µM.

What about the TGI [12] of the same compound?
The TGI was 3.3 µM.

What about the TGI [13] of the same compound?
Its TGI is 14.3 µM.

What about the TGI [14] of the same compound?
Its TGI is 2.66 µM.

And the TGI [15]?
Its TGI is 11.9 µM.

What about the TGI [16] of the same compound?
The TGI was 3.61 µM.

What about the TGI [17] of the same compound?
The TGI was 6.4 µM.

What about the TGI [18] of the same compound?
Its TGI is 14.9 µM.

What about the TGI [19] of the same compound?
The TGI was 5.48 µM.

What about the TGI [20] of the same compound?
Its TGI is 35.9 µM.

And the TGI [21]?
The TGI was 19.1 µM.

And the TGI [23]?
The TGI was 5.21 µM.

And the TGI [24]?
Its TGI is 6.57 µM.

And the TGI [25]?
The TGI was 4.04 µM.

What about the TGI [26] of the same compound?
Its TGI is 4.3 µM.

What about the TGI [28] of the same compound?
The TGI was 4.19 µM.

What about the TGI [30] of the same compound?
The TGI was 17.9 µM.

What about the TGI [59] of the same compound?
The TGI was 3.82 µM.

And the TGI [32]?
The TGI was 3.39 µM.

And the TGI [33]?
Its TGI is 4.1 µM.

And the TGI [34]?
Its TGI is 5.17 µM.

What about the TGI [35] of the same compound?
The TGI was 7.37 µM.

And the TGI [36]?
Its TGI is 3.99 µM.

And the TGI [56]?
The TGI was 5.39 µM.

And the TGI [37]?
The TGI was 7.56 µM.

What about the TGI [38] of the same compound?
Its TGI is 5.42 µM.

What about the TGI [39] of the same compound?
The TGI was 4.48 µM.

What about the TGI [40] of the same compound?
Its TGI is 2.96 µM.

And the TGI [41]?
The TGI was 4.53 µM.

What about the TGI [57] of the same compound?
The TGI was over 100 µM.

What about the TGI [42] of the same compound?
The TGI was 30.8 µM.

What about the TGI [43] of the same compound?
The TGI was 3.65 µM.

What about the TGI [44] of the same compound?
The TGI was 4.27 µM.

And the TGI [45]?
The TGI was 4.37 µM.

What about the TGI [58] of the same compound?
The TGI was 5.13 µM.

And the TGI [46]?
The TGI was 23.3 µM.

And the TGI [47]?
Its TGI is 3.27 µM.

What about the TGI [48] of the same compound?
The TGI was 5.26 µM.

And the TGI [49]?
The TGI was 4.91 µM.

What about the TGI [50] of the same compound?
Its TGI is over 100 µM.

What about the TGI [51] of the same compound?
The TGI was 3.84 µM.

What about the TGI [52] of the same compound?
Its TGI is 3.73 µM.

And the TGI [53]?
The TGI was 6 µM.

What about the TGI [54] of the same compound?
Its TGI is 6.53 µM.

And the TGI [55]?
Its TGI is 5.39 µM.
